Test results as given in patent publication US6635641B2 (Agouron Pharmaceuticals, Inc., priority 2000, dated 2003).
Like-named read-outs stand apart in the source and are kept apart here.

Assays:
[1] = tested on: lung cancer cells (line MV522); test: Cancer cell proliferation (MV522) assay (MTT); format: cell-based
Outline: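 Proliferation was read by MTT reduction 72 h after compound addition, in a 4-day protocol with no starvation step. Two thousand MV522 cells were seeded in RPMI1640 with 10% FBS and 2 mM glutamine and given 1 day to attach before dosing.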

LCK tyrosine kinase = target: T1, LCK tyrosine kinase (Homo sapiens, UniProt P06239, C224D/P223M); test: LCK spectrophotometric assay; format: biochemical; settings: for inhibition at 1 µM: read-out: LCK-P percent inhibition; for Ki: read-out: LCK-P Ki;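 on all read-outs here: recombinant LCK kinase activity on poly(E4Y1), ADP formation coupled through PK/LDH to NADH oxidation, followed as absorbance loss at 340 nm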
T1 construct: starting from amino acid residue 223 to the end of the protein at residue 509; made in house; host or cells: insect cells

[2] = tested on: human umbilical vein endothelial cells (HUVEC); test: HUVEC proliferation assay (VEGF-stimulated, MTT); format: cell-based; settings: Homo sapiens
Outline: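 Exponentially growing HUVEC (passage 3-4) were serum-starved 24 h in F12K + 1% FBS, given test compound (final DMSO 0.1%), then stimulated 1 h later with VEGF at 6 ng/ml final. Proliferation read after 72 h by 4 h MTT dye reduction, absorbance at 595.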

[3] = target: T2, TEK/Tie-2 intracellular kinase domain (Homo sapiens, UniProt Q02763); test: TEK/Tie-2 spectrophotometric assay; format: biochemical; settings: read-out: TEK-P percent inhibition
T2 construct: residues 775 to 1124, with methionine added at the N-terminus; made in house; host or cells: baculovirus expression system
Experimental: The intracellular kinase domain (residues 775 to 1124, with methionine added at the N-terminus) of human TEK/Tie-2 was expressed using the baculovirus vector expression system. For assay purposes, the enzyme was autophosphorylated prior to use by incubation overnight at 4° C., at 10 μM enzyme concentration, with 4 mM ATP, 40 mM MgCl2, and 5 mM DTT in 200 mM Hepes buffer at ph 7.5, in 90:10 water:glycerol.
The production of ADP from ATP that accompanies phosphoryl transfer was coupled to oxidation of NADH using phosphoenolpyruvate (PEP) and a system having pyruvate kinase (PK) and lactic dehydrogenase (LDH). The oxidation of NADH was monitored by following the decrease of absorbance at 340 nm (e340=6.22 cm^−1 mM^−1) using a Beckman DU 650 spectrophotometer. Assay conditions for phosphorylated VEGF-R2Δ50 (indicated as FLVK-P in the tables below) were the following: 1 mM PEP; 250 μM NADH; 50 units of LDH/mL; 20 units of PK/mL; 5 mM DTT; 5.1 mM poly(E4Y1); 1 mM ATP; and 25 mM MgCl2 in 200 mM Hepes, pH 7.5. Assay conditions for unphosphorylated VEGF-R2Δ50 (indicated as FLVK in the tables) were the following: 1 mM PEP; 250 μM NADH; 50 units of LDH/mL; 20 units of PK/mL; 5 mM DTT; 20 mM poly(E4Y1); 3 mM ATP; and 60 mM MgCl2 and 2 mM MnCl2 in 200 mM Hepes, pH 7.5. Assays were initiated with 5 to 40 nM of enzyme. Ki values were determined by measuring enzyme activity in the presence of varying concentrations of test compounds. The data were analyzed using Enzyme Kinetic and Kaleidagraph software.
The spectrophotometric assay was carried out as described above for VEGF-R2, except for the following changes in concentration: TEK/Tie-2=200 nM, MgCl2=40 mM, and ATP=2 mM.

[4] = target: T3, unphosphorylated VEGF-R2Δ50 (FLVK) (Homo sapiens, UniProt P35968, DEL940-989/E990V); test: VEGF-R2 coupled spectrophotometric assay, unphosphorylated construct (FLVK); format: biochemical;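 further: Baculovirus-expressed cytosolic kinase domain, ADP formation linked via pyruvate kinase and lactate dehydrogenase to NADH oxidation, read as falling absorbance at 340 nm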
T3 construct: VEGF-R2Δ50 contains residues 806-939 and 990-1171; made in house; host or cells: baculovirus/insect cells

[5] = target: T4, FGF-R1 intracellular kinase domain (Homo sapiens, UniProt P11362, C488A/C584S/L457V); test: FGF-R spectrophotometric assay; format: biochemical; settings: for inhibition at 1 µM: read-out: FGF-P percent inhibition
T4 construct: starting from the endogenous methionine residue 456 to glutamate 766; made in house; host or cells: baculovirus expression system

[6] = target: T5, phosphorylated VEGF-R2Δ50 (FLVK-P) (Homo sapiens, UniProt P35968, DEL940-989/E990V); test: VEGF-R2 coupled spectrophotometric assay, phosphorylated construct (FLVK-P); format: biochemical
T5 construct: VEGF-R2Δ50 contains residues 806-939 and 990-1171; made in house; host or cells: baculovirus/insect cells
Outline: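 Baculovirus-expressed VEGF-R2Δ50 (residues 806-939/990-1171, E990V), optionally autophosphorylated; ADP formation coupled via PK/LDH to NADH oxidation at 340 nm, pH 7.5 Hepes. FLVK-P: 1 mM ATP, 5.1 mM poly(E4Y1), 25 mM MgCl2; FLVK: 3 mM ATP, 20 mM poly(E4Y1), 60 mM MgCl2, 2 mM MnCl2. Ki from activity over compound concentrations.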

[7] = HUVEC, with albumin, read-out: Huvec + Albumin IC50
[8] = HUVEC proliferation with albumin, read-out: Huvec + Albumin IC50
[9] = VEGF-stimulated HUVEC proliferation, read-out: HUVEC IC50
[10] = unphosphorylated VEGF-R2 construct

T3 sequence (P35968 with tags, fused parts or gaps DEL940-989/E990V limits assumed): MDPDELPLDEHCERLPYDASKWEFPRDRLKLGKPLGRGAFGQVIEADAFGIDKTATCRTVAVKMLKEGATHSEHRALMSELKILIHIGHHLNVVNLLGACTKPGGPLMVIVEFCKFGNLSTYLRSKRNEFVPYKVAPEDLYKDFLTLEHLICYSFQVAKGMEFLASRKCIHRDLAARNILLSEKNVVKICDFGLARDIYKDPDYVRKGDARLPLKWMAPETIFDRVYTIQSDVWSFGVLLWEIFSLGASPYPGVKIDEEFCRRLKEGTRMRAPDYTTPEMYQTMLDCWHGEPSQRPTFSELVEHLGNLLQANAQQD
T5 sequence (P35968 with tags, fused parts or gaps DEL940-989/E990V limits assumed): as above
T4 sequence (P11362 456-766 L457V/C488A/C584S): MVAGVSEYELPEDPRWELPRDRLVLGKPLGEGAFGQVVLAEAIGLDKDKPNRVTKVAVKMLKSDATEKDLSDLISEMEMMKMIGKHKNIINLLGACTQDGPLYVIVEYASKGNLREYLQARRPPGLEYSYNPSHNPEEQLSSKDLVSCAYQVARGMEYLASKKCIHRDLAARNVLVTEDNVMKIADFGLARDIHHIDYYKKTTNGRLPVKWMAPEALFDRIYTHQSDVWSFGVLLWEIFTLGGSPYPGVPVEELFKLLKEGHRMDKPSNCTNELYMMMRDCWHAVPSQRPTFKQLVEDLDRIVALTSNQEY
T1 sequence (P06239 223-509 P223M/C224D): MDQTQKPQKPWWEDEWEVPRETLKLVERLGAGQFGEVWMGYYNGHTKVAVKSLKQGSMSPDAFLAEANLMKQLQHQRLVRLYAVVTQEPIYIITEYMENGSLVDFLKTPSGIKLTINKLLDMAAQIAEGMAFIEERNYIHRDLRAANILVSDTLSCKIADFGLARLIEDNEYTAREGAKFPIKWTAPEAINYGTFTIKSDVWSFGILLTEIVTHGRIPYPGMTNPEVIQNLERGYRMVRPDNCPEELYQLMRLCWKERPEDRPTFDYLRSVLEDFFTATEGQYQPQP
T2 sequence (Q02763 775-1124): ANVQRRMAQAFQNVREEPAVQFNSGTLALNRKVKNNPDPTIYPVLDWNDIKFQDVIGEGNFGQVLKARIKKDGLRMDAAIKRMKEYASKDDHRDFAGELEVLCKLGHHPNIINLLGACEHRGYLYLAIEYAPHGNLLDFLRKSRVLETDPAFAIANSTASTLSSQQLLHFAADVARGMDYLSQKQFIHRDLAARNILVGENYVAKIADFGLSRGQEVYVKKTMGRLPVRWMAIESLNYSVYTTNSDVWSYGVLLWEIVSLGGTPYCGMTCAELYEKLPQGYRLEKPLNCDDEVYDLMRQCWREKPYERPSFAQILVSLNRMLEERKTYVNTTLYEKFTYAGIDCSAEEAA

| IC50 ([1]; MV522) [nM] | inhibition at 1 µM (LCK tyrosine kinase) [%] | inhibition at 1 µM [3] [%] | Ki [4] [nM] | inhibition at 1 µM [5] [%] | Ki (LCK tyrosine kinase) [nM] | Ki ([5]; read-out: FGF-P Ki) [nM] | IC50 ([1]; MV522 lung cancer cells) [nM] | Ki [4, 10] [nM] | melting point [°C] | Ki [6] [nM] | inhibition at 0.05 µM ([4]; @ 50 nM, read-out: FLVK percent inhibition) [%] | SMILES | IC50 ([2]; HUVEC, read-out: HUVEC IC50) [nM] | IC50 [2, 7] [nM] | IC50 [2, 8] [nM] | IC50 [2, 9] [nM] |
| --- | --- | --- | --- | --- | --- | --- | --- | --- | --- | --- | --- | --- | --- | --- | --- | --- |
| 1400 | 84 | 56 | 0.86 | 69 | – | – | – | – | – | – | – | O=C(Nc1ccc(N2CCNCC2)c(C(F)(F)F)c1)c1cccc(CCc2cc(/C=C/c3cccnc3)n[nH]2)c1 [Example F-5] | 4.1 | 17 | – | – |
| > 10000 | – | 17 | 0.68 | – | 10.5 | 57 | – | – | – | – | – | COc1ccc(Nc2cc(COc3cc(C(=O)Nc4ccc(N5CCCC5)c(C(F)(F)F)c4)ccc3F)[nH]n2)cn1 [Example J-2, 4-Fluoro-3-[5-(6-methoxy-pyridin-3-yl)amino-2H-pyrazol-3-yl]methoxy-N-(4-pyrrolidin-1-yl-3-trifluoromethyl-phenyl)-benzamide] | 26 | 180 | – | – |
| – | 11 | – | – | 11 | – | – | 6100 | 4.1 | 104 to 107 | – | – | CC(C)(C)c1cc(C(=O)Nc2cccc(OCc3cccnc3)c2)ccc1O [Example X-4, 3-t-Butyl-4-hydroxy-N-[3-(pyridin-3-ylmethoxy)-phenyl]-benzamide] | – | – | > 1000 | 71 |
| – | 22 | 40 | – | 37 | – | – | – | 0.045 | – | – | – | CC(C)(C)c1cc(C(=O)Nc2cccc(CSc3ncnc4[nH]ncc34)c2)ccc1O [Example V-4, N-{3-[(1H-pyrazolo[3,4-d]-pyrimidin-4-yl)sulfanylmethyl]phenyl}-(4-hydroxy-3-t-butyl)benzamide] | – | – | > 1000 | 27 |
| > 10000 | – | – | – | 91 | 11.2 | – | – | – | 150 to 151 | 0.197 | – | Cc1cc(NC(=O)c2cccc(CCc3cc(Nc4ccccc4)n[nH]3)c2)ccc1C(C)C [Example G-3, N-(4-isopropyl-3-methylphenyl)-3-[2-(5-phenylamino-2H-pyrazol-3-yl)ethyl]benzamide] | 9.8 | 280 | – | – |
| 5900 | 45 | – | 4.4 | 62 | – | – | – | – | 160 to 161 | – | – | O=C(Nc1ccc(N2CCOCC2)c(C(F)(F)F)c1)c1ccc(F)c(OCc2cccnc2)c1 [Example R-12, 4-Fluoro-N-(4-morpholin-4-yl-3-trifluoromethyl-phenyl)-3-(pyridin-3-ylmethoxy)-benzamide] | 15 | – | – | – |
| 5700 | 87 | – | 3.4 | 96 | – | – | – | – | 175 to 180 | – | – | Cl.O=C(Nc1ccc(N2CCOCC2)c(C(F)(F)F)c1)c1ccc(F)c(OCc2cncc3ccccc23)c1 [Example R-14, 4-Fluoro-N-(4-morpholin-4-yl-3-trifluoromethyl-phenyl)-3-(isoquinolin-4-ylmethoxy)-benzamide] | 14 | 345 | – | – |
| – | 59 | – | – | 30 | – | – | – | – | 163 to 167 | – | 59 | O=C(Nc1cc(Cl)c(N2CCCC2)c(Cl)c1)c1ccc(F)c(OCc2cccnc2)c1 [Example R-11, N-(3,5-Dichloro-4-pyrrolidin-1-yl-phenyl)-4-fluoro-3-(pyridin-3-ylmethoxy)-benzamide] | 31 | – | – | – |
| 10000 | – | – | 1.6 | 79 | 59 | – | – | – | – | 1.46 | – | Cc1cc(NC(=O)c2cccc(OCc3cncc4ccccc34)c2)ccc1C(C)C [Example K-1, N-(4-Isopropyl-3-methyl-phenyl)-3-(Isoquinolin-4-yl)methoxy-benzamide] | 40 | > 1000 | – | – |
| > 10000 | 41 | – | 0.19 | 83 | – | – | – | – | – | 1.19 | – | Cc1cc(NC(=O)c2cccc(C3CC3c3cc(Nc4ccccc4)n[nH]3)c2)ccc1C(C)C (centres unmarked) [Example H-1, N-(4-Isopropyl-3-methyl-phenyl)-3-[2-(5-phenylamino-2-H-pyrazol-3-yl)cyclopropyl]-benzamide] | 27 | – | – | – |
| 1800 | 5 | – | 16.5 | 7 | – | – | – | – | 123 to 131 | – | – | O=C(Nc1ccc(N2CCNCC2)c(C(F)(F)F)c1)c1ccc(F)c(OCc2cccnc2)c1 [Example R-13, 4-Fluoro-N-[4-(piperazin-1-yl)-3-trifluoromethylphenyl]-3-(pyridin-3-yl)methoxybenzamide] | 19 | 120 | – | – |
| – | 19 | – | – | 18 | – | – | – | 1.5 | 95 to 100 | – | – | CC(C)(C)c1cc(C(=O)Nc2cccc(SCc3cccnc3)c2)ccc1O [Example W-2, 3-t-Butyl-4-hydroxy-N-[3-(pyridin-3-ylmethylsulfanyl)-phenyl]-benzamide] | – | – | – | 120 |
| > 10000 | 84 | – | 0.31 | 83 | – | – | – | – | – | 1.01 | – | COc1ccc(/C=C/c2cc(CCc3cccc(C(=O)Nc4ccc(C(C)C)c(C)c4)c3)[nH]n2)cc1OC [Example F-3, 3-(2-{5-[(E)-2-(3,4-Dimethoxyphenyl)ethenyl]-2H-pyrazol-3-yl}-ethyl)-N-(3-methyl-4-isopropylphenyl)-benzamide] | 10 | – | – | – |
| – | 59 | – | – | 28 | – | – | – | 1.5 | 105 to 111 | – | – | CC(C)(C)c1cc(C(=O)Nc2cccc(OCc3cncc(Br)c3)c2)ccc1O [Example X-1, N-[3-(5-Bromo-pyridin-3-ylmethoxy)-phenyl]-3-t-butyl-4-hydroxy-benzamide] | – | – | 330 | 27 |
| 5100 | 48 | – | 3 | 33 | – | – | – | – | – | 2.6 | – | COc1ccc(Nc2cc(CCc3cccc(C(=O)Nc4ccc(N5CCNCC5)c(C(F)(F)F)c4)c3)[nH]n2)cn1 [Example G-10] | 5.7 | 180 | – | – |
| – | 65 | – | – | 56 | – | – | – | 0.7 | 205 to 210 | – | – | CC(C)(C)c1cc(C(=O)Nc2cccc(SCc3cncc4ccccc34)c2)ccc1O.Cl [Example W-3, 3-t-Butyl-4-hydroxy-N-[3-(isoquinolin-4-ylmethylsulfanyl)-phenyl]-benzamide] | – | – | – | 220 |
